Results from ChEMBL document CHEMBL1671689, “Activity of ceftaroline against recent emerging serotypes of Streptococcus pneumoniae in the United States” (2010).

Key:
Type in all cases: functional
[1] = tested on: Streptococcus pneumoniae; experiment: Antimicrobial activity against Streptococcus pneumoniae serotype 11A by broth microdilution method in presence of beta-lactamase inhibitor clavulanic acid
[2] = tested on: Streptococcus pneumoniae; experiment: Antimicrobial activity against Streptococcus pneumoniae serotype 22F assessed as percent susceptible isolates by broth microdilution method in presence of beta-lactamase inhibitor clavulanic acid
[3] = tested on: Streptococcus pneumoniae; experiment: Antimicrobial activity against multiple drug resistant Streptococcus pneumoniae serotype 19A assessed as percent susceptible isolates by broth microdilution method in presence of beta-lactamase inhibitor clavulanic acid
[4] = tested on: Streptococcus pneumoniae; experiment: Antimicrobial activity against multiple drug resistant Streptococcus pneumoniae serotype 6B by broth microdilution method in presence of beta-lactamase inhibitor clavulanic acid
[5] = tested on: Streptococcus pneumoniae; experiment: Antimicrobial activity against Streptococcus pneumoniae serotype 6C by broth microdilution method in presence of beta-lactamase inhibitor clavulanic acid
[6] = tested on: Streptococcus pneumoniae; experiment: Antimicrobial activity against Streptococcus pneumoniae serotype 15A assessed as percent susceptible isolates by broth microdilution method
[7] = tested on: Streptococcus pneumoniae; experiment: Antimicrobial activity against multiple drug resistant Streptococcus pneumoniae serotype 19F by broth microdilution method in presence of beta-lactamase inhibitor clavulanic acid
[8] = tested on: Streptococcus pneumoniae; experiment: Antimicrobial activity against multiple drug resistant Streptococcus pneumoniae serotype 19F assessed as percent susceptible isolates by broth microdilution method in presence of beta-lactamase inhibitor clavulanic acid
[9] = tested on: Streptococcus pneumoniae; experiment: Antimicrobial activity against Streptococcus pneumoniae serotype 3 assessed as percent susceptible isolates by broth microdilution method in presence of beta-lactamase inhibitor clavulanic acid
[10] = tested on: Streptococcus pneumoniae; experiment: Antimicrobial activity against Streptococcus pneumoniae serotype 35B by broth microdilution method in presence of beta-lactamase inhibitor clavulanic acid
[11] = tested on: Streptococcus pneumoniae; experiment: Antimicrobial activity against Streptococcus pneumoniae serotype 35B assessed as percent susceptible isolates by broth microdilution method in presence of beta-lactamase inhibitor clavulanic acid
[12] = tested on: Streptococcus pneumoniae; experiment: Antimicrobial activity against Streptococcus pneumoniae serotype 6C assessed as percent susceptible isolates by broth microdilution method in presence of beta-lactamase inhibitor clavulanic acid
[13] = tested on: Streptococcus pneumoniae; experiment: Antimicrobial activity against Streptococcus pneumoniae serotype 7F assessed as percent susceptible isolates by broth microdilution method in presence of beta-lactamase inhibitor clavulanic acid
[14] = tested on: Streptococcus pneumoniae; experiment: Antimicrobial activity against Streptococcus pneumoniae serotype 7F by broth microdilution method in presence of beta-lactamase inhibitor clavulanic acid
[15] = tested on: Streptococcus pneumoniae; experiment: Antimicrobial activity against Streptococcus pneumoniae serotype 15A assessed as percent susceptible isolates by broth microdilution method in presence of beta-lactamase inhibitor clavulanic acid
[16] = tested on: Streptococcus pneumoniae; experiment: Antimicrobial activity against Streptococcus pneumoniae serotype 19A assessed as percent susceptible isolates by broth microdilution method in presence of beta-lactamase inhibitor clavulanic acid
[17] = tested on: Streptococcus pneumoniae; experiment: Antimicrobial activity against Streptococcus pneumoniae serotype 19F assessed as percent susceptible isolates by broth microdilution method in presence of beta-lactamase inhibitor clavulanic acid
[18] = tested on: Streptococcus pneumoniae; experiment: Antimicrobial activity against Streptococcus pneumoniae serotype 19A by broth microdilution method in presence of beta-lactamase inhibitor clavulanic acid
[19] = tested on: Streptococcus pneumoniae; experiment: Antimicrobial activity against multiple drug resistant Streptococcus pneumoniae serotype 19A by broth microdilution method in presence of beta-lactamase inhibitor clavulanic acid
[20] = tested on: Streptococcus pneumoniae; experiment: Antimicrobial activity against Streptococcus pneumoniae serotype 3 by broth microdilution method in presence of beta-lactamase inhibitor clavulanic acid
[21] = tested on: Streptococcus pneumoniae; experiment: Antimicrobial activity against multiple drug resistant Streptococcus pneumoniae serotype 6B assessed as percent susceptible isolates by broth microdilution method in presence of beta-lactamase inhibitor clavulanic acid
[22] = tested on: Streptococcus pneumoniae; experiment: Antimicrobial activity against Streptococcus pneumoniae serotype 23A assessed as percent susceptible isolates by broth microdilution method in presence of beta-lactamase inhibitor clavulanic acid
[23] = tested on: Streptococcus pneumoniae; experiment: Antimicrobial activity against Streptococcus pneumoniae serotype 23B assessed as percent susceptible isolates by broth microdilution method in presence of beta-lactamase inhibitor clavulanic acid
[24] = tested on: Streptococcus pneumoniae; experiment: Antimicrobial activity against Streptococcus pneumoniae serotype 11A assessed as percent susceptible isolates by broth microdilution method in presence of beta-lactamase inhibitor clavulanic acid

CC1(C)S[C@@H]2[C@H](NC(=O)[C@H](N)c3ccc(O)cc3)C(=O)N2[C@H]1C(=O)O [AMOXICILLIN] was tested, and the MIC [1] was ≤ 1 µg/mL, the MIC50 [1] was ≤ 1 µg/mL and the MIC90 [1] was ≤ 1 µg/mL. The Activity [2] was 100%, the Activity [3] was 8.1% and the MIC50 [4] was 8 µg/mL. The MIC90 [4] was 16 µg/mL, the MIC [5] was ≤ 1 µg/mL and the MIC50 [5] was ≤ 1 µg/mL. The MIC90 [5] was ≤ 1 µg/mL, the Activity [6] was 100% and the MIC50 [7] was 8 µg/mL. For the same compound, the MIC90 [7] was 16 µg/mL, the Activity [8] was 8.1% and the Activity [9] was 100%. It also gave an MIC50 [10] of 2 µg/mL, an MIC90 [10] of 4 µg/mL and an Activity [11] of 62.7%. The Activity [12] was 100%, the Activity [13] was 62.7% and the MIC [14] was ≤ 1 µg/mL. For the same compound, the MIC50 [14] was ≤ 1 µg/mL, the MIC90 [14] was ≤ 1 µg/mL and the Activity [15] was 100%. For the same compound, the Activity [16] was 45%, the Activity [17] was 37.9% and the MIC50 [18] was 8 µg/mL. For the same compound, the MIC90 [18] was 8 µg/mL, the MIC50 [19] was 8 µg/mL and the MIC90 [19] was 16 µg/mL. The MIC [20] was ≤ 1 µg/mL, the MIC50 [20] was ≤ 1 µg/mL and the MIC90 [20] was ≤ 1 µg/mL. For the same compound, the Activity [21] was 8.1%, the Activity [22] was 100% and the Activity [23] was 100%. It also gave an Activity [24] of 98%.
